From patent US8809545B2, “Aryl pyridine as aldosterone synthase inhibitors” (Novartis AG, priority 2009, dated 2014)

Key:
[1] = target: T1, aldosterone synthase (Homo sapiens, UniProt P19099); experiment: Aldosterone cell secretion in Ang II-stimulated NCI-H295R cells (SPA with anti-aldosterone antibody); assay type: cell-based; settings: human adrenocortical carcinoma NCI-H295R cells, 1 μM Ang II, 24 h
T1 construct: host or cells: NCI-H295R
T1 sequence (P19099 25-503): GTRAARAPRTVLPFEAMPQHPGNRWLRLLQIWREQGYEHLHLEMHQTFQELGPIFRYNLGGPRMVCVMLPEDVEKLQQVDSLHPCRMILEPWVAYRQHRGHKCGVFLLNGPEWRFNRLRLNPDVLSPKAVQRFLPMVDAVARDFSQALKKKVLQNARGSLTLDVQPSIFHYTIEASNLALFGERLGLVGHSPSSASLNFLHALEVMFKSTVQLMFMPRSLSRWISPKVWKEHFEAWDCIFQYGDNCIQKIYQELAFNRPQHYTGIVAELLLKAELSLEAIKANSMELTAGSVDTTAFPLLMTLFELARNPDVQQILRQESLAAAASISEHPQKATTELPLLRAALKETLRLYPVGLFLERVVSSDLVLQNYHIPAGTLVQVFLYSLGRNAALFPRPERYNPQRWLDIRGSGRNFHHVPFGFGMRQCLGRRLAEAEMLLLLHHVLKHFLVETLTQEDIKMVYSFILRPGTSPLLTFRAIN
Text: In particular, the aldosterone synthase inhibitory activities in vitro can be determined by the following assay.
Human adrenocortical carcinoma NCI-H295R cell line was obtained from American Type Culture Collection (Manassas, Va.). Insulin/transferrin/selenium (ITS)-A supplement (100×), DMEM/F-12, antibiotic/antimycotic (100×), and fetal bovine serum (FBS) were purchased from Invitrogen (Carlsbad, Calif.). Anti-mouse PVT scintillation proximity assay (SPA) beads and NBS 96-well plates were obtained from GE Health Sciences (Piscataway, N.J.) and Corning (Acton, Mass.), respectively. Solid black 96-well flat bottom plates were purchased from Costar (Corning, N.Y.). Aldosterone and angiotensin (Ang II) were purchased from Sigma (St. Louis, Mo.). D-[1,2,6,7-^3H(N)]aldosterone was acquired from PerkinElmer (Boston, Mass.). Nu-serum was a product of BD Biosciences (Franklin Lakes, N.J.).
On the following day, cells are rinsed with 100 μL of phosphate-buffered saline (PBS) and incubated with 100 μL of treatment medium containing 1 μM Ang II and a compound at different concentrations in quadruplicate wells at 37° C. for 24 h. At the end of incubation, 50 μL of medium is withdrawn from each well for measurement of aldosterone production by an SPA using mouse anti-aldosterone monoclonal antibodies.
Measurement of aldosterone activity can also be performed using a 96-well plate format. […] Anti-mouse PVT SPA beads (50 μL) are then added to each well and incubated overnight at room temperature prior to counting in a Microbeta plate counter. The amount of aldosterone in each sample is calculated by comparing with a standard curve generated using known quantities of the hormone.
(§1) Inhibition of the release of certain steroids can be used as a measure of the respective enzyme inhibition by the added test compounds. The dose-dependent inhibition of enzymatic activity by a compound is calculated by means of an inhibition plot which is characterized by an IC50.
The inhibition plot is calculated by fitting a 4-parameter logistic function to the raw data points using the least squares method. The equation of the 4-parameter logistic function is calculated as follows: Y=(d−a)/((1+(x/c)b))+a, where: a=minimum data level, b=gradient, I […], d=maximum data level, x=inhibitor concentration.

[2] = target: T2, CYP11B1 (steroid 11 β-hydroxylase) (Homo sapiens, UniProt P15538); experiment: Cortisol cell secretion in NCI-H295R cells (in vitro inhibitory activity for CYP11B1); assay type: cell-based; settings: NCI-H295R, compound at 1 μM
T2 construct: the NCI-H295R cells have CYP11B1 (steroid 11 β-hydroxylase); host or cells: NCI-H295R
T2 sequence (P15538 25-503): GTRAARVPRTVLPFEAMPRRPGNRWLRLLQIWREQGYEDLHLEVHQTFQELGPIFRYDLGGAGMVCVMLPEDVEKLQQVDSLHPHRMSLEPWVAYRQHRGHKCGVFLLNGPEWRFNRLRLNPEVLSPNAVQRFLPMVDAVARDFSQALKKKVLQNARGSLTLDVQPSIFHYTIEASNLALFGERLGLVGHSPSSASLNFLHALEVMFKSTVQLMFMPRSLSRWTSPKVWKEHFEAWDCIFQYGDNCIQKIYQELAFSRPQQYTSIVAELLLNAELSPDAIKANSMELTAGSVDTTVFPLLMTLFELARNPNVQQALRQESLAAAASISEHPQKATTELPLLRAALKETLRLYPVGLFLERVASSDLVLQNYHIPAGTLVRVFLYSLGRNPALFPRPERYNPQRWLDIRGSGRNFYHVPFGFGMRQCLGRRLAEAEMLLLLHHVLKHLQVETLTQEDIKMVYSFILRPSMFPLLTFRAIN
Text: The in vitro inhibitory activities for CYP11B1 can be determined by the following assay.
The cell line NCI-H295R was originally isolated from an adrenocortical carcinoma and has been characterized in the literature through the stimulable secretion of steroid hormones and the presence of the enzymes essential for steroidogenesis. Thus, the NCI-H295R cells have CYP11B1 (steroid 11 β-hydroxylase). The cells show the physiological property of zonally undifferentiated human fetal adrenocortical cells which, however, have the capacity to produce the steroid hormones which are formed in the three, phenotypically distinguishable zones in the adult adrenal cortex.
The NCI-H295R cells (American Type Culture Collection, ATCC, Rockville, Md., USA) are grown in Dulbeoco's Modified Eagle'Ham F-12 Medium (DME/F12), which has been supplemented with Ulroser SF Serum (Soprachem, Cergy-Saint-Christophe, France), insulin, transferrin, selenite (I-T-S, Becton Dickinson Biosiences, Franklin lakes, N.J., USA) and antibiotics in 75 cm^2 cell culture vessels at 37° C. and in a 95% air-5% carbon dioxide atmosphere. The cells are subsequently transferred for colony formation into a 24-well incubation vessel. They are cultivated there in DME/F12 medium, which is now supplemented with 0.1% bovine serum instead of Ultroser SF for 24 hours. The experiment is initiated by cultivating the cells in DME/F12 medium which is supplemented with 0.1% bovine serum albumin and test compound, in the presence or absence of cell stimulants, for 72 hours. The test substance is added in a concentration range from 0.2 nanomolar to […]. Cell stimulants which can be used are angiotensin II ([…] or 100 nanomolar), potassium ions (16 millimolar), forskolin (10 micromolar) or a combination of two stimulants.
The excretion of aldosterone, cortisol, corticosterone and estradiol/estrone into the culture medium can be detected and quantified by commercially available, specific monoclonal antibodies in radioimmunoassays in accordance with the manufacturer's instructions.
as §1
The inhibition activity of CYP11B1 production can also be expressed in percentage inhibition (% inhibition) at a given concentration (e.g. % inhibition at 1 μM), which is the cortisol level when cell is treated with the given concentration of a compound of the invention (e.g. concentration of 1 μM) versus the cortisol excretion when cell is free of the compound of the invention. % inhibition cortisol production=[(Y′−X′)/Y′]×100 wherein X′ is the level of cortisol when the cell is treated with a compound of Formula I; and Y′ is the level of cortisol when the cell is free of compound of Formula I.

`CCS(=O)(=O)NC(c1cncc(-c2ccc(C#N)cc2F)c1)C1CC1` (centres unmarked) [N-(5-(4-cyano-2-fluorophenyl)pyridin-3-yl)(cyclopropyl)methyl)ethanesulfonamide] showed an IC50 [1] of 167 nM and an inhibition at 1 µM [2] of 39%.

`COc1cc(-c2cncc(NS(=O)(=O)C3CC3)c2)ccc1C#N` [N-(5-(4-cyano-3-methoxyphenyl)pyridin-3-yl)cyclopropane-sulfonamide] was tested, and the IC50 [1] was 77 nM and the inhibition at 1 µM [2] was 32%.

In the case of `CCS(=O)(=O)Nc1cncc(-c2ccc(C#N)c(OC)c2)c1` [N-(5-(4-cyano-3-methoxyphenyl)pyridin-3-yl)ethanesulfonamide], the IC50 [1] is reported as 33 nM and the inhibition at 1 µM [2] is reported as 38%.

In the case of `CCS(=O)(=O)NC(c1ccc(F)cc1)c1cncc(-c2ccc(C#N)c(C)c2)c1` (centres unmarked) [N-(5-(4-cyano-3-methylphenyl)pyridin-3-yl)(4-fluorophenyl)methyl)ethane-sulfonamide], the IC50 [1] is reported as 121 nM and the inhibition at 1 µM [2] is reported as 23%.

`CCS(=O)(=O)NCc1cncc(-c2nc3ccc(Cl)cc3n2C)c1` [N-(5-(6-chloro-1-methyl-1H-benzo[d]imidazol-2-yl)pyridin-3-yl)methyl)ethanesulfonamide] showed an IC50 [1] of 97 nM and an inhibition at 1 µM [2] of 24%.

For `CCS(=O)(=O)N(C)C(c1cncc(-c2ccc(C#N)c(Cl)c2)c1)C1CC1` (centres unmarked) [N-((5-(3-chloro-4-cyanophenyl)pyridin-3-yl)(cyclopropyl)methyl)-N-methylethanesulfonamide], the IC50 [1] was 5 nM and the inhibition at 1 µM [2] was 63%.

For `CCS(=O)(=O)NC(c1cncc(-c2ccc(F)c(Cl)c2)c1)C1CC1` (centres unmarked) [N-((5-(3-chloro-4-fluorophenyl)pyridin-3-yl)(cyclopropyl)methyl)-ethanesulfonamide], the IC50 [1] was 22 nM and the inhibition at 1 µM [2] was 21%.

In the case of `CCS(=O)(=O)NC(c1cncc(-c2ccc(Cl)cc2)c1)C1CC1` (centres unmarked) [N-((5-(4-chlorophenyl)pyridin-3-yl)(cyclopropyl)methyl)-ethanesulfonamide], the IC50 [1] is reported as 42 nM and the inhibition at 1 µM [2] is reported as 31%.

`COc1cc(-c2cncc(CNS(C)(=O)=O)c2)ccc1C#N` [N-((5-(4-cyano-3-methoxyphenyl)pyridin-3-yl)methyl)methane-sulfonamide] was tested, and the IC50 [1] was 85 nM and the inhibition at 1 µM [2] was 40%.

For `CCS(=O)(=O)NC(c1cncc(-c2cccc(Cl)c2Cl)c1)C1CC1` (centres unmarked) [N-(cyclopropyl(5-(2,3-dichlorophenyl)pyridin-3-yl)methyl)ethanesulfonamide], the IC50 [1] was 5 nM and the inhibition at 1 µM [2] was 39%.

With `CCS(=O)(=O)NC(c1cncc(-c2ccc(OC(F)(F)F)cc2)c1)C1CC1` (centres unmarked) [N-(cyclopropyl(5-(4-(trifluoromethoxy)phenyl)pyridin-3-yl)methyl)ethanesulfonamide] the IC50 [1] was 110 nM and the inhibition at 1 µM [2] was 20%.

Work on `CCc1ccc(S(=O)(=O)Nc2cncc(-c3ccc(C#N)c(Cl)c3)c2)cc1` [N-[5-(3-Chloro-4-cyano-phenyl)-pyridin-3-yl]-4-ethyl-benzene-sulfonamide] yielded an IC50 [1] of 6 nM and an inhibition at 1 µM [2] of 78%.

For `COc1ccc(S(=O)(=O)Nc2cncc(-c3ccc(C#N)c(Cl)c3)c2)cc1` [N-[5-(3-Chloro-4-cyano-phenyl)-pyridin-3-yl]-4-methoxy-benzene-sulfonamide], the IC50 [1] was 9 nM and the inhibition at 1 µM [2] was 74.5%.
